# Laboratory results reported in US11542304B2, “Multimeric bicyclic peptide ligands” (BicycleTx Limited, priority 2018, dated 2023).
# What was measured:
# [1] = tested on: MC38 syngeneic tumors; test: In vivo efficacy in MC38 syngeneic tumors in C57BL/6J B-h4-1BB humanized mice; conditions: 20 or 30 mg/kg i.v. QAD × 6; compared to CD137 monoclonal antibody agonist; FIG. 7
# Method: The MC38 murine colon carcinoma cell line was purchased from Shunran Shanghai Biological Technology Co., Ltd. The cells will be maintained in vitro as monolayer culture in Dulbecco's Modified Eagle's medium (DMEM) supplemented with 10% heat inactivated fetal calf serum, 100 U/mL penicillin and 100 μg/mL streptomycin at 37° C. in an atmosphere of 5% CO2. The tumor cells will be routinely subcultured twice weekly by trypsin-EDTA treatment. Cells growing in an exponential growth phase will be harvested and counted for tumor inoculation. 6-8 week old female C57BL/6J B-h4-1BB humanized mice were subcutaneously injected (in the flank) with MC38 tumor cells (5×10^5) with 0.1 mL PBS for tumor development. Tumor-bearing animals were randomly enrolled into six study groups when the mean tumor size reached approximately 113 mm^3 (Study 1) or 107 mm^3 (Study 2). The test and positive control articles were administrated to the tumor-bearing mice according to predetermined regimens as shown below.
# Test articles were formulated in aqueous vehicle (25 mM Histidine, 10% sucrose pH=7) and administered intravenously or intraperitoneally. CD137 monoclonal antibody agonist was administered by intraperitoneal injection in 0.9% saline.
# Tumor volume was measured three times a week in two dimensions using a caliper, and the volume was expressed in mm3 using the formula: V=0.5a×b2 where a and b were the long and short diameters of the tumor, respectively. Results are represented by mean and the standard deviation (Mean±SD).
# In study 2, mice were sacrificed 21 days after treatment initiation and tumors were harvested for T-cell analysis by flow cytometry. Tumor were cut into small pieces and filtered through a 70 micrometer filter. Lymphocytes were isolated using Histopaque 1083 and resuspended in RPMI 1640 supplemented with 10% fetal bovine serum. Lymphocytes were stained with a cell viability dye (Zombie NIR, Biolegend, #423106) and a panel of antibodies including anti-mouse CD45 (Biolegend, #103138), anti-mouse CD3 (Biolegend, #100328), anti-mouse CD4 (Biolegend, #100438), anti-mouse CD8 (Biolegend, #100759). Stained cells were analysed by Attune N×T Flow Cytometer. T-cell results are expressed as % of CD3+ cells among CD45+ cells. CD8+ T-cell results are expressed as % of CD8+ cells among CD45+CD3+ cells. CD4+ T-cell results are expressed as % of CD4+ cells among CD45+CD3+ cells. Results are represented by mean and the standard deviation (Mean±SD) and the individual values.
# Statistical analysis: Data was analyzed using 2way ANOVA or ordinary One-way ANOVA with Dunnett's test for multiple comparisons, and P<0.05 was considered to be statistically significant. Both statistical analysis and biological observations are taken into consideration. ***p<0.001, **p<0.01, *p<0.05.
# [2] = tested on: melanoma patient tumour samples; test: Ex vivo human tumour cell kill assay (3D spheroid culture); conditions: 48 hours
# Method: Two frozen, dissociated melanoma patient tumour samples were purchased from Folio Conversant. Cells were thawed quickly at 37° C. and pipetted into 10 mL of Wash Medium [DMEM/F12+1× Penicillin/Streptomycin+50 μg/mL Gentamycin+100 μg/mL G418+100 μg/mL Hygromycin+1× Insulin-Transferrin-Selenium (ITS)+10 mM HEPES] with 1 mg/mL DNaseI added fresh. Cell counts were performed using a haemocytometer and a 1:2 dilution with 0.04% Trypan blue. Cells were spun down and resuspended in Growth Medium [EmbryoMax DMEM+10% heat-inactivated FBS+1× Penicillin/Streptomycin+50 μg/mL Gentamycin+1× GlutaMAX+1 mM Sodium pyruvate+1×ITS+0.4% BSA+4.5 g/L glucose+2.3 g/L sodium bicarbonate+10 mM HEPES+10 ng/mL basic fibroblast growth factor (bFGF)+20 ng/mL epidermal growth factor (EGF)] at 5×10^5 cells/mL. Cells were magnetized as described in the N3D Biosciences manufacturer's protocol. Briefly, NanoShuttle (NS) is added at 1 μL to 1×10^4 cells and mixed in by pipetting. […] Flow cytometry panels used in this experiment analysed the number of lymphocytes and tumour cells present on Days 0 and 2. Tumour cell killing was determined by the decrease in the number of CD45 negative cells in the treated wells versus the untreated control (FIG. 12)—significance was calculated using a 2-way ANOVA.
# [3] = Pharmacokinetics of Bicycle multimers in CD-1 mice; conditions: 5 mg/kg IV, male CD-1 mice; FIGS. 5A and 5B
# Method: Male CD-1 mice were dosed with 5 mg/kg of each Bicycle multimer formulated in 25 mM Histidine HCl, 10% sucrose pH 7 via tail vein injection. Serial bleeding (about 80 μL blood/time point) was performed via submandibular or saphenous vein at each time point. All blood samples were immediately transferred into prechilled microcentrifuge tubes containing 2 μL K2-EDTA (0.5M) as anti-coagulant and placed on wet ice. Blood samples were immediately processed for plasma by centrifugation at approximately 4° C., 3000 g. The precipitant including internal standard was immediately added into the plasma, mixed well and centrifuged at 12,000 rpm, 4° C. for 10 minutes. The supernatant was transferred into pre-labeled polypropylene microcentrifuge tubes, and then quick-frozen over dry ice. The samples were stored at 70° C. or below as needed until analysis. 7.5 μL of the supernatant samples were directly injected for LC-MS/MS analysis using an Orbitrap Q Exactive in positive ion mode to determine the concentrations of Bicycle multimer. Plasma concentration versus time data were analyzed by non-compartmental approaches using the Phoenix WinNonlin 6.3 software program. C0, Cl, Vdss, T1/2, AUC(0-last), AUC(0-inf), MRT(0-last), MRT(0-inf) and graphs of plasma concentration versus time profile were reported.
# [4] = tested on: Pan T-cells (isolated from human PBMCs); test: T-cell cytokine release assay; assay type: cell-based; conditions: anti-CD3 stimulated T cells, 48 hours; FIG. 14
# Method: Healthy human buffy coat was purchased from the Sylvan N. Goldman Oklahoma Blood Institute and shipped fresh. Peripheral blood mononuclear cells (PBMCs) were isolated by Ficoll density gradient centrifugation. Red blood cells were lysed with ACK (Ammonium-Chloride-Potassium) lysis buffer. Pan T-cells were then isolated from total PBMCs using negative magnetic bead selection (Miltenyi MACS human Pan-T cell isolation kit). Pan T-cells were then plated on anti-CD3 coated 96-well plates (0.5 μg/mL) in culture media (RPMI1640 with 10% FBS) plus or minus compounds. Supernatant from cultures was collected after 24 and 48 hours. Cytokine [i.e., interleukin-2 (IL-2), interferon gamma (IFNγ)] release in supernatant was measured by HTRF assay (CisBio) according to the kit's instructions. HTRF assay plates were read on a Clariostar plate reader (BMG Labtech) at 665 nm and 620 nm. Data was analyzed and extrapolated to a standard curve according to the HTRF kit instruction in Prism and Excel. Cytokine release fold change was calculated by dividing the pg/mL of cytokine detected by background cytokine released (CD3 stimulation alone). Data was graphed in Prism as the mean of replicates with standard deviation error bars.
# [5] = biological target: T1, CD137 (Homo sapiens, UniProt Q07011); test: CD137 reporter cell activity washout assay; assay type: cell-based; set-up: host or cells: Jurkat cells; conditions: 10 nM, exposure 30, 60 or 120 minutes, total 6 hours; FIG. 13
# Method: Jurkat cells engineered to overexpress CD137 and express a luciferase gene under the NF-κB promoter were purchased from Promega. The reporter cells were incubated with 10 nM of CD137 agonists for the indicated times at 37° C. in RPMI1640 media with 1% FBS. After either 30, 60, or 120 minutes, cells were washed in an excess of culture media and resuspended in 75 μL of fresh media. A no washout condition was also included. All washout conditions were performed in duplicate. Cells then continued to incubate for a total of 6 hours (an additional 5.5, 5, or 4 hours respective to exposure times). After incubation, 75 μL of Bio-Glo reagent (Promega) was added to each well and allowed to equilibrate for 10 minutes at room temperature. Luminescence was read on the Clariostar plate reader (BMG LabTech). Fold induction was calculated by dividing the luminescence signal by background wells (reporter cells with no agonist added). The percent of the maximum fold induction was calculated by dividing the fold induction of the washout time by the fold induction of the no washout condition and multiplying by 100.
# [6] = biological target: T1, CD137; test: CD137 Promega reporter cell activity assay (NF-κB luciferase in Jurkat cells)
# T1 sequence (Q07011 24-255): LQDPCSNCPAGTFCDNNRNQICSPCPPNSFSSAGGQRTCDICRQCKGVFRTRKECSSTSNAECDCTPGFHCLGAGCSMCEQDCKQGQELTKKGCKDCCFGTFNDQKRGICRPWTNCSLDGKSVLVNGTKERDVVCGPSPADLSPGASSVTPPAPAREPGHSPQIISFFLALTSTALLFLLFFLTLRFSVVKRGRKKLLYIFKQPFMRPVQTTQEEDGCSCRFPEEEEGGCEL
structure (smiles),measurement,setting,value
CCCC[C@@H]1NC(=O)[C@H](Cc2ccc(O)cc2)NC(=O)[C@@H]2CCCN2C(=O)[C@H](CC(=O)O)NC(=O)[C@H](C)NC(=O)[C@H](Cc2ccccc2)NC(=O)[C@@H]2CSCCC(=O)N3CN(CN(C3)C(=O)CCSC[C@@H](C(=O)N[C@@H](C)C(N)=O)NC1=O)C(=O)CCSC[C@H](NC(=O)[C@H](C)NC(C)=O)C(=O)N[C@@H]([C@@H](C)CC)C(=O)N[C@@H](CCC(=O)O)C(=O)N[C@@H](CCCCNC(=O)CCc1cn(CCOCCOCCOCCOCCOCCOCCOCCOCCOCCOCCOCCOCCOCCOCCOCCOCCOCCOCCOCCOCCOCCOCCOCCNC(=O)CCOCC(COCCC(=O)NCCOCCOCCOCCOCCOCCOCCOCCOCCOCCOCCOCCOCCOCCOCCOCCOCCOCCOCCOCCOCCOCCOCCOCCn3cc(CCC(=O)NCCCC[C@@H]4NC(=O)[C@H](CCC(=O)O)NC(=O)[C@H]([C@@H](C)CC)NC(=O)[C@@H](NC(=O)[C@H](C)NC(C)=O)CSCCC(=O)N5CN6CN(C5)C(=O)CCSC[C@H](NC(=O)[C@H](Cc5ccc(O)cc5)NC(=O)[C@H](CCC(N)=O)NC(=O)CNC4=O)C(=O)N[C@@H](Cc4ccccc4)C(=O)N[C@@H](C)C(=O)N[C@@H](CC(=O)O)C(=O)N4CCC[C@H]4C(=O)N[C@@H](Cc4ccc(O)cc4)C(=O)N[C@@H](CCCC)C(=O)N[C@H](C(=O)N[C@@H](C)C(N)=O)CSCCC6=O)nn3)(COCCC(=O)NCCOCCOCCOCCOCCOCCOCCOCCOCCOCCOCCOCCOCCOCCOCCOCCOCCOCCOCCOCCOCCOCCOCCOCCn3cc(CCC(=O)NCCCC[C@@H]4NC(=O)[C@H](CCC(=O)O)NC(=O)[C@H]([C@@H](C)CC)NC(=O)[C@@H](NC(=O)[C@H](C)NC(C)=O)CSCCC(=O)N5CN6CN(C5)C(=O)CCSC[C@H](NC(=O)[C@H](Cc5ccc(O)cc5)NC(=O)[C@H](CCC(N)=O)NC(=O)CNC4=O)C(=O)N[C@@H](Cc4ccccc4)C(=O)N[C@@H](C)C(=O)N[C@@H](CC(=O)O)C(=O)N4CCC[C@H]4C(=O)N[C@@H](Cc4ccc(O)cc4)C(=O)N[C@@H](CCCC)C(=O)N[C@H](C(=O)N[C@@H](C)C(N)=O)CSCCC6=O)nn3)COCCC(=O)NCCOCCOCCOCCOCCOCCOCCOCCOCCOCCOCCOCCOCCOCCOCCOCCOCCOCCOCCOCCOCCOCCOCCOCCn3cc(CCC(=O)NCCCC[C@@H]4NC(=O)[C@H](CCC(=O)O)NC(=O)[C@H]([C@@H](C)CC)NC(=O)[C@@H](NC(=O)[C@H](C)NC(C)=O)CSCCC(=O)N5CN6CN(C5)C(=O)CCSC[C@H](NC(=O)[C@H](Cc5ccc(O)cc5)NC(=O)[C@H](CCC(N)=O)NC(=O)CNC4=O)C(=O)N[C@@H](Cc4ccccc4)C(=O)N[C@@H](C)C(=O)N[C@@H](CC(=O)O)C(=O)N4CCC[C@H]4C(=O)N[C@@H](Cc4ccc(O)cc4)C(=O)N[C@@H](CCCC)C(=O)N[C@H](C(=O)N[C@@H](C)C(N)=O)CSCCC6=O)nn3)nn1)C(=O)NCC(=O)N[C@@H](CCC(N)=O)C(=O)N[C@@H](Cc1ccc(O)cc1)C(=O)N2 [BCY7838],"anti-tumor activity (tumor volume), Study 1",[1],elicits a range of anti-tumor activities
same,lymphocyte numbers (live CD45 positive cells),[2]; FIG. 12B,no significant difference between treatments on lymphocyte numbers
same,tumour cell death (live CD45 negative cells),"[2]; in one melanoma patient sample, but not the other, FIG. 12A",significant tumour cell death
same,systemic elimination (plasma concentration after IV dosing),[3],retain the property of rapid systemic elimination
same,"pro-inflammatory cytokine (IL-2, IFNγ) secretion by T-cells",[4],secrete pro-inflammatory cytokines
same,cell activity after washout,[5],maintain cell activity after washout
same,Average Fold EC50 Improvement relative to CD137L,[6]; Average EC50 for CD137L = 14.2 nM,0.73
same,Average Relative Fold Induction relative to CD137L,[6]; Average fold induction for CD137L = 4.0,2.19
